Measurements as given in article PMC7534258, “Novel temporin L antimicrobial peptides: promoting self-assembling by lipidic tags to tackle superbugs” (Journal of Enzyme Inhibition and Medicinal Chemistry, 2020).
Entries after “also recorded” stand apart in the source; their conditions may differ. Where two headings read alike, the source gives them in different places. Where a SMILES comes first, the peptide text is derived from it. [ ]: non-standard residue; d: D form. The star is where a group is joined. Phe(4-NH2) = Nc1ccc(C[C@H](N)C(=O)O)cc1; Pentanoyl = CCCCC(=O)*

Columns and labels:
[1] = 90% human serum, 37 ± 1 °C, 200 µM
Description: Human serum from human male AB plasma was acquired by Sigma-Aldrich-Merk. Water and MeCN were obtained from commercial suppliers and used without further purification. Analytical RP-UHPLC was performed on a Shimadzu Nexera equipped with a Phenomenex Kinetex column (C18, 4.6 mm x 150 mm, […]) and H2O (0.1% TFA) and MeCN (0.1% TFA) as eluents.
Serum stability was evaluated by modification of elsewhere described methods[37]^,[38]. In particular, the human serum was allocated into a 1.5 ml eppendorf tube and temperature equilibrated at 37 ± 1 °C for 15 min. Peptides 1B, and C were dissolved in sterile water to prepare a stock solution of 2 mM and then mixed with the human serum to make a final concentration of 0.2 mM (90% serum). The resulting reaction solution was incubated at 37 ± 1 °C. Aliquots of the reaction solutions were taken at known time intervals (0, 15, 45, 75, 90, 120 min), subjected to serum proteins precipitation by addition of MeCN (double volume respect to the aliquot). The cloudy reaction sample was cooled (4 °C) for 15 min and then spun at 13000 rpm for 10 min to pellet the precipitated serum proteins. The supernatant was then analysed by RP-UHPLC by using a linear elution gradient from 10 to 90% MeCN (0.1% TFA) in water (0.1% TFA) over 20 min. A flow rate of 1 ml/min was used, absorbance was detected at 220 nm, and the analysis was performed at room temperature.

[2] = Critical aggregation concentration, Nile red fluorescence; format: physicochemical; conditions: aqueous solution, pH 7, Nile red, 1–200 µM peptide
Description: The solvatochromic fluorescent probe Nile red is widely used to determine the CAC of self-assembling peptides. […] Since Nile red is poorly soluble in water, there is a large preference to partition aggregates, which offer hydrophobic binding sites. Initially, 1 mM methanolic Nile red was prepared. Then, the methanolic Nile red was diluted with water in order to have a final concentration of 500 nM (solution A). The peptides 1B, 2B, 3B, C, were prepared as follows[39]: peptide stock solutions (0.4 mM) were prepared by dissolving the single peptides in water (1B, C) or tetrahydrofuran (3B, 2B) and sonicating for 15 min. Different aliquots were taken to prepare solutions of each peptide at different concentrations (1, 5, 10, 15, 20, 30, 50, 100 and 200 µM). Then, all solutions were diluted with water, sonicated for 15 min and freeze-dried. Finally, the peptide powders were dissolved with the right volume of solution A and allowed to stand in the dark place for 1 h before measurement. Emission spectra for each solution were measured by a Cary Eclipse Varian spectrometer. Spectra were taken between 570 and 700 nm at a slit width of 5 nm, using an excitation wavelength of 550 nm and a 10 nm slit width. The measurements were performed in triplicate. The data were analysed by plotting the maximum emission fluorescence corresponding wavelength (y) as a function of peptide concentration (x) and fitting with the sigmoidal Boltzmann equation: y=A1+A2/1+e^(x−x0/Δx)+A2 where the variables A1 and A2 correspond to the upper and lower limits of the sigmoid, x0 is the inflection point of the sigmoid and Δx is the parameter, which characterises the steepness of the function. The sigmoidal plot allows calculating the CAC value at x0.

HaCaT cells [3] = conditions: 24 h, at 25.0 µM
Description: The human immortalised keratinocytes HaCaT cells (AddexBio, San Diego, CA, USA) were cultured in Dulbecco’s modified Eagle’s medium containing 4 mM glutamine (DMEMg), supplemented with 10% heat-inactivated foetal bovine serum (FBS) and 0.1 mg/ml of penicillin and streptomycin, at 37 °C and 5% CO2, in 25 cm^2 or 75 cm^2 flasks[33].
The colorimetric MTT assay was carried out to measure cellular metabolic activity in terms of cell viability[33]^,[36]. Viable cells are able to reduce, by active mitochondrial dehydrogenases, the yellow salt MTT to purple formazan crystals. Briefly, 4 × 10^4 HaCaT cells, suspended in DMEMg supplemented with 2% FBS, were plated in each well of a 96-well microtiter plate. After overnight incubation, at 37 °C in a 5% CO2 atmosphere, keratinocytes were treated for 24 h with fresh serum-free medium containing the peptides 3B and C at concentrations ranging from 3.12 µM to 25 µM. Afterward, the culture medium was replaced with Hank’s buffer supplemented with 0.5 mg/ml MTT and the plate was incubated at 37 °C and 5% CO2 for 4 h. At the end, acidified isopropanol was employed to dissolve the formazan crystals. Cell viability was calculated, with respect to cells not treated with peptide, by absorbance measurements at 570 nm using a microplate reader (Infinite M200; Tecan, Salzburg, Austria)[33]. […]

HaCaT cells [4] = conditions: at 25.0 µM, ref Merlino et al. [22]; cited from earlier work

Question: With `CCCCC(=O)Nc1ccc(C[C@H](N)C(=O)N[C@H](C(=O)N2CCC[C@H]2C(=O)N[C@@H](Cc2c[nH]c3ccccc23)C(=O)N[C@@H](Cc2ccccc2)C(=O)N[C@@H](CO)C(=O)N[C@@H](CCCCN)C(=O)N[C@@H](Cc2ccccc2)C(=O)N[C@H](CC(C)C)C(=O)N[C@H](CCCCN)C(=O)N[C@@H](CCCNC(=N)N)C(=O)N[C@H](C(=O)N[C@@H](CC(C)C)C(N)=O)[C@@H](C)CC)C(C)C)cc1` [C, H-Phe(4-NHCO(CH2)3CH3)-Val-Pro-Trp-Phe-Ser-Lys-Phe-DLeu-DLys-Arg-Ile- Leu-NH2] (H-[Phe(4-NH2)](Pentanoyl)VPWFSKF[dL][dK]RIL-NH2) as the compound, how does the “start of partial degradation in human serum” value [1] read?
Answer: 80 min

Question: What about the “time peptide is stable in human serum” value [1] of the same compound?
Answer: up to 1 h

Question: And the “CAC (critical aggregation concentration)” value [2]?
Answer: 39.5 µM

Question: And the cytotoxicity (HaCaT cells [3])?
Answer: 13.29%

Question: Which results are given for `CC[C@H](C)[C@H](NC(=O)[C@H](CCCNC(=N)N)NC(=O)[C@@H](CCCCN)NC(=O)[C@@H](CC(C)C)NC(=O)[C@H](Cc1ccccc1)NC(=O)[C@H](CCCCN)NC(=O)[C@H](CO)NC(=O)[C@H](Cc1ccccc1)NC(=O)[C@H](Cc1c[nH]c2ccccc12)NC(=O)[C@@H]1CCCN1C(=O)[C@@H](NC(=O)[C@@H](N)Cc1ccccc1)C(C)C)C(=O)N[C@@H](CC(C)C)C(N)=O` [Compound 1B, H-Phe-Val-Pro-Trp-Phe-Ser-Lys-Phe-DLeu-DLys-Arg-Ile-Leu-NH2] (H-FVPWFSKF[dL][dK]RIL-NH2)?
Answer: proteolytic stability in human serum (in words) ([1]; within 120 min): rapidly degraded; CAC (critical aggregation concentration) [2]: unable to aggregate under the range of concentrations investigated; also recorded: not aggregated at the concentration tested; cytotoxicity (HaCaT cells [4]): 28.22%
